Measured values published in PMC8141582, “Synergistic Effect of Statins and Abiraterone Acetate on the Growth Inhibition of Neuroblastoma via Targeting Androgen Receptor” (Frontiers in Oncology, 2021).
Like-named read-outs stand apart in the source and are kept apart here.

Tests used:
SH-SY5Y xenografts = experiment: SH-SY5Y tumor xenograft study; format: in vivo, BALB/c nude mice; conditions: Sim 20 mg/kg, oral daily
Text: Four weeks old BALB/c nude mice of both sexes were purchased from Vital River Laboratory Animal Technology Co., Ltd. (Beijing, China) and maintained under specific pathogen-free conditions. Male mice were castrated 5 days before cell inoculation. […] Then, all the mice were divided randomly into four groups: control group (Placebo, n = 7), simvastatin group (Sim, n = 6), abiraterone acetate group (AA, n = 6), and combination group (Com, n = 6) including three male mice in each group. […] AA 150 mg/kg/day; combined simvastatin 10 mg/kg/day with AA 75 mg/kg/day. Tumor was harvested after 10 days of dosing, then fixed half of a tumor in 4% buffered formaldehyde for IHC and the other half was stored −80°C for RT-PCR and Western Blots analysis.

HCT116 or HT29 cells = system: HCT116 or HT29 cells; set-up: method as in Supplement [11]; key: Positive: Simvastatin alone inhibited the progression of cancer; Negative: Simvastatin alone could not inhibit the progression of cancer; conditions: Colorectal Cancer, 50.0 mg/kg/day, oral; ref Supplement [11]; cited from earlier work
[1] = system: specimens of T-ALL patients; set-up: method as in Supplement [25]; key: Positive: Simvastatin alone inhibited the progression of cancer; Negative: Simvastatin alone could not inhibit the progression of cancer; conditions: Pediatric Acute Lymphoblastic Leukemia, 20.0 mg/kg/day, oral; ref Supplement [25]; cited from earlier work
HUVEC cells = experiment: MTT cell viability assay, HUVEC; format: cell-based; conditions: Homo sapiens, normal cell line, 72 h
Protocol: (§1) Statins dissolved in DMSO and AA dissolved in ethanol. After 72 h treatment, the medium was added 0.5 mg/ml MTT reagent and incubated at 37°C for 4 h. Subsequently, the supernatant was aspirated, and cells were lysed in 150 µl DMSO, then shaken 10 min at 37°C. The optical density (OD) was measured at 570 and 630 nm using a plate reader.

GL-26 cells = system: GL-26 cells; set-up: method as in Supplement [2]; key: Positive: Simvastatin alone inhibited the progression of cancer; Negative: Simvastatin alone could not inhibit the progression of cancer; conditions: Human glioblastoma multiforme, 1.0 mg/kg/day or 10.0 mg/kg/day, oral; ref Supplement [2]; cited from earlier work
PC-3 cells = system: PC-3 cells; set-up: key to Results (simvastatin alone): Positive: Simvastatin alone inhibited the progression of cancer; Negative: Simvastatin alone could not inhibit the progression of cancer; conditions: Prostate Cancer, i.p., cited from earlier work
CAPAN-2 cells = system: CAPAN-2 cells; set-up: method as in Supplement [8]; key: Positive: Simvastatin alone inhibited the progression of cancer; Negative: Simvastatin alone could not inhibit the progression of cancer; conditions: Pancreatic Cancer, 0.5 mg/kg/day, oral; ref Supplement [8]; cited from earlier work
HepG2 cells = system: HepG2 cells; set-up: method as in Supplement [7]; key: Positive: Simvastatin alone inhibited the progression of cancer; Negative: Simvastatin alone could not inhibit the progression of cancer; conditions: Hepatocellular Carcinoma, 40.0 mg/kg/day, i.p.; ref Supplement [7]; cited from earlier work
HL7702 cells = experiment: MTT cell viability assay, HL7702; format: cell-based; conditions: Homo sapiens, L02, normal cell line, 72 h
Protocol: as §1

K562 cells = system: K562 cells; set-up: key: Positive: Simvastatin alone inhibited the progression of cancer; Negative: Simvastatin alone could not inhibit the progression of cancer; conditions: Chronic Myelogenous Leukemia, i.p., cited from earlier work
[2] = system: TSC2-null cells from the primary tumors; set-up: method as in Supplement [3]; key: Positive: Simvastatin alone inhibited the progression of cancer; Negative: Simvastatin alone could not inhibit the progression of cancer; conditions: Pulmonary Lymphangioleiomyomatosis, 100.0 mg/kg/day, oral; ref Supplement [3]; cited from earlier work
SK-N-BE (2) cells = experiment: MTT cell viability assay, SK-N-BE (2); format: cell-based; conditions: Homo sapiens, SKNBE2, NB cell line, 72 h
Protocol: N2a, SH-SY5Y, SK-N-BE (2), 10A, HUVEC, HL7702 cells were plated in 96-well plates at 8,000 cells/well, respectively, in complete media in triplicate wells for each dose and cultured for 18 h. The neuroblastoma cell lines, N2a, SH-SY5Y, and SK-N-BE (2), and non-cancer cell lines, 10A, HUVEC, and HL7702, were treated with simvastatin and fluvastatin in a range of doses from 0 to 20 μM and with AA from 0 to 30 μM; N2a, SH-SY5Y SK-N-BE (2), were treated with rosuvastatin in a range of doses from 0 to 100 μM for 72 h. Statins dissolved in DMSO and AA dissolved in ethanol. After 72 h treatment, the medium was added 0.5 mg/ml MTT reagent and incubated at 37°C for 4 h. Subsequently, the supernatant was aspirated, and cells were lysed in 150 µl DMSO, then shaken 10 min at 37°C. The optical density (OD) was measured at 570 and 630 nm using a plate reader.

10A cells = experiment: MTT cell viability assay, 10A; format: cell-based; conditions: Homo sapiens, normal cell line, 72 h
Protocol: as §1

IC50 (SK-N-BE (2) cells): 10.5 µM
SMILES: CCC(C)(C)C(=O)O[C@H]1C[C@@H](C)C=C2C=C[C@H](C)[C@H](CC[C@@H]3C[C@@H](O)CC(=O)O3)[C@H]21 [Simvastatin]
tumor growth (SH-SY5Y xenografts): tumor growth delay | Results (simvastatin alone) (HCT116 or HT29 cells): Positive | Results (simvastatin alone) [1]: Negative | IC50 (HUVEC cells): 14.6 µM | Results (simvastatin alone) (GL-26 cells): Negative | Results (simvastatin alone) (PC-3 cells; 2.0 mg/kg/day or 4.0 mg/kg/day, ref Supplement [18]): Positive | Results (simvastatin alone) (PC-3 cells; 2.1 mg/kg/day or 21.0 mg/kg/day, ref Supplement [19]): Positive | Results (simvastatin alone) (PC-3 cells; 4.0 mg/kg/day, ref Supplement [17]): Positive | Results (simvastatin alone) (CAPAN-2 cells): Positive | Results (simvastatin alone) (HepG2 cells): Positive | IC50 (HL7702 cells): 20.6 µM | Results (simvastatin alone) (K562 cells; 1.3 mg/kg/day or 2.0 mg/kg/day, ref Supplement [26]): Positive | Results (simvastatin alone) (K562 cells; 7.1 mg/kg/day or 14.3 mg/kg/day, ref Supplement [27]): Positive | Results (simvastatin alone) [2]: Positive | IC50 (10A cells): 26.7 µM
